Measured values: patent EP0527889B1, “QUINOLIZINONE TYPE COMPOUNDS” (priority 1990, dated 1991)
≈ marks a conversion by molar mass, not a printed value.

Assays:
Test in all cases: In vitro antibacterial activity, MIC by agar dilution
Format in all cases: cell-based
Details in all cases: BHI agar, 35-37°C, 20-24 hours, unit assumed
[1] = tested on: Staphylococcus epidermidis 3519
Procedure: (§1) Each plate was inoculated with 1:100 (or 1:10 for slow growing strains, primarily Micrococcus and Streptococcus) dilutions of up to 32 different microorganisms, using a Steers replicator block calibrated to deliver approximately 10^4 colony forming units (CFUs). The inoculated plates were incubated at from about 35°C to about 37°C for approximately 20-24 hours. In addition, a control plate using BHI agar containing no test compound was prepared and incubated at the beginning and at the end of each test. Ciprofloxacin was used as the control antibiotic.
(§2) The MIC was defined as the lowest concentration of test compound yielding no growth (a slight haze or sparsely isolated colonies at the inoculum spot) as compared to the growth control containing no test compound.

Escherichia coli DC-2 = tested on: Escherichia coli DC-2
Procedure: as §1, §2

[2] = tested on: Pseudomonas aeruginosa A5007
Procedure: as §1, §2

[3] = tested on: Staphylococcus aureus NCTC 10649
Procedure: as §1, §2

[4] = tested on: Micrococcus luteus ATCC 4698
Procedure: as §1, §2

[5] = tested on: Streptococcus pyrogenes CONST
Procedure: as §1, §2

[6] = tested on: Pseudomonas aeruginosa BMH10
Procedure: as §1, §2

[7] = tested on: Micrococcus luteus ATCC 9341
Procedure: as §1, §2

[8] = tested on: Acinetobacter calcoaceticus CMX 669
Procedure: as §1, §2

[9] = tested on: Staphylococcus aureus CMX 553
Procedure: as §1, §2

[10] = tested on: Streptococcus bovis A5169
Procedure: as §1, §2

[11] = tested on: Pseudomonas aeruginosa 5263
Procedure: as §1, §2

[12] = tested on: Staphylococcus aureus 1775
Procedure: as §1, §2

[13] = tested on: Staphylococcus aureus A-5278
Procedure: as §1, §2

[14] = tested on: Streptococcus agalactaciae CMX 508
Procedure: as §1, §2

Escherichia coli JUHL = tested on: Escherichia coli JUHL
Procedure: as §1, §2

[15] = tested on: Enterococcus faecium ATCC 8043
Procedure: as §1, §2

[16] = tested on: Pseudomonas aeruginosa 2862
Procedure: as §1, §2

[17] = tested on: Staphylococcus aureus A5177
Procedure: as §1, §2

[18] = tested on: Staphylococcus aureus ATCC 6538P
Procedure: as §1, §2

[19] = tested on: Streptococcus pyrogenes EES61
Procedure: as §1, §2

Escherichia coli H560 = tested on: Escherichia coli H560
Procedure: as §1, §2

[20] = tested on: Streptococcus pyrogenes 2548 INDUC
Procedure: as §1, §2

[21] = tested on: Pseudomonas aeruginosa K799/WT
Procedure: as §1, §2

[22] = tested on: Pseudomonas aeruginosa K799/61
Procedure: as §1, §2

[23] = tested on: Providencia stuartii CMX 640
Procedure: as §1, §2

Pseudomonas cepacia 296I = tested on: Pseudomonas cepacia 296I
Procedure: as §1, §2

Escherichia coli KNK 437 = tested on: Escherichia coli KNK 437
Procedure: as §1, §2

[24] = tested on: Enterobacter aerogenes ATCC 13048
Procedure: as §1, §2

[25] = tested on: Staphylococcus aureus 642A
Procedure: as §1, §2

[26] = tested on: Klebsiella pneumoniae ATCC 8045
Procedure: as §1, §2

Escherichia coli SS = tested on: Escherichia coli SS
Procedure: as §1, §2

SMILES | MIC values [1] [µg/mL] | MIC values (Escherichia coli DC-2) [µg/mL] | MIC values [2] [µg/mL] | MIC values [3] [µg/mL] | MIC values [4] [µg/mL] | MIC values [5] [µg/mL] | MIC values [6] [µg/mL] | MIC values [7] [µg/mL] | MIC values [8] [µg/mL] | MIC values [9] [µg/mL] | MIC values [10] [µg/mL] | MIC values [11] [µg/mL] | MIC values [12] [µg/mL] | MIC values [13] [µg/mL] | MIC values [14] [µg/mL] | MIC values (Escherichia coli JUHL) [µg/mL] | MIC values [15] [µg/mL] | MIC values [16] [µg/mL] | MIC values [17] [µg/mL] | MIC values [18] [µg/mL] | other results
CN1CCN(c2nc3c(C4CC4)cc(C(=O)O)c(=O)n3cc2F)CC1 [Example 163, 9-Cyclopropyl-3-fluoro-2-(4-methylpiperazin-1-yl)-6H-6-oxo-pyrido[1,2-a]pyrimidine-7-carboxylic acid] | 1.56 (≈ 4.5 µM) | 6.2 (≈ 17.9 µM) | 3.1 (≈ 8.95 µM) | 0.78 (≈ 2.25 µM) | 12.5 (≈ 36.1 µM) | 12.5 (≈ 36.1 µM) | 1.56 (≈ 4.5 µM) | 25 (≈ 72.2 µM) | 0.39 (≈ 1.13 µM) | 1.56 (≈ 4.5 µM) | 50 (≈ 144 µM) | 100 (≈ 289 µM) | 100 (≈ 289 µM) | 1.56 (≈ 4.5 µM) | 12.5 (≈ 36.1 µM) | 0.2 (≈ 0.577 µM) | 12.5 (≈ 36.1 µM) | > 100 | 1.56 (≈ 4.5 µM) | 1.56 (≈ 4.5 µM) | MIC values [19]: 12.5 µg/mL (≈ 36.1 µM); MIC values (Escherichia coli H560): 0.1 µg/mL (≈ 0.289 µM); MIC values [20]: 12.5 µg/mL (≈ 36.1 µM); MIC values [21]: 3.1 µg/mL (≈ 8.95 µM); MIC values [22]: 1.56 µg/mL (≈ 4.5 µM); MIC values [23]: 50 µg/mL (≈ 144 µM); MIC values (Pseudomonas cepacia 296I): 12.5 µg/mL (≈ 36.1 µM); MIC values (Escherichia coli KNK 437): 3.1 µg/mL (≈ 8.95 µM); MIC values [24]: 0.39 µg/mL (≈ 1.13 µM); MIC values [25]: 1.56 µg/mL (≈ 4.5 µM); MIC values [26]: 0.1 µg/mL (≈ 0.289 µM); MIC values (Escherichia coli SS): 0.1 µg/mL (≈ 0.289 µM)
O=C(O)c1cc(C2CC2)c2nc(N3CCNCC3)c(F)cn2c1=O [Example 164, 9-Cyclopropyl-3-fluoro-2-(piperazin-1-yl)-6H-6-oxo-pyrido[1,2-a]pyrimidine-7-carboxylic acid] | 1.56 (≈ 4.69 µM) | 1.56 (≈ 4.69 µM) | 0.39 (≈ 1.17 µM) | 1.56 (≈ 4.69 µM) | 6.2 (≈ 18.7 µM) | 12.5 (≈ 37.6 µM) | 0.39 (≈ 1.17 µM) | 12.5 (≈ 37.6 µM) | 0.39 (≈ 1.17 µM) | 1.56 (≈ 4.69 µM) | 12.5 (≈ 37.6 µM) | 100 (≈ 301 µM) | 50 (≈ 150 µM) | 1.56 (≈ 4.69 µM) | 12.5 (≈ 37.6 µM) | 0.05 (≈ 0.15 µM) | 12.5 (≈ 37.6 µM) | 100 (≈ 301 µM) | 1.56 (≈ 4.69 µM) | 0.78 (≈ 2.35 µM) | MIC values [19]: 12.5 µg/mL (≈ 37.6 µM); MIC values (Escherichia coli H560): 0.1 µg/mL (≈ 0.301 µM); MIC values [20]: 12.5 µg/mL (≈ 37.6 µM); MIC values [21]: 0.39 µg/mL (≈ 1.17 µM); MIC values [22]: 0.1 µg/mL (≈ 0.301 µM); MIC values [23]: 12.5 µg/mL (≈ 37.6 µM); MIC values (Pseudomonas cepacia 296I): 3.1 µg/mL (≈ 9.33 µM); MIC values (Escherichia coli KNK 437): 1.56 µg/mL (≈ 4.69 µM); MIC values [24]: 0.05 µg/mL (≈ 0.15 µM); MIC values [25]: 1.56 µg/mL (≈ 4.69 µM); MIC values [26]: 0.05 µg/mL (≈ 0.15 µM); MIC values (Escherichia coli SS): 0.02 µg/mL (≈ 0.0602 µM)
